Assay results as given in ChEMBL document CHEMBL5291721, “A preclinical secondary pharmacology resource illuminates target-adverse drug reaction associations of marketed drugs” (Nat Commun, 2023).

Tests used:
[1] = molecular target: T1, Amine oxidase [flavin-containing] A (Homo sapiens, UniProt P21397); format: functional
T1 sequence (P21397 whole entry): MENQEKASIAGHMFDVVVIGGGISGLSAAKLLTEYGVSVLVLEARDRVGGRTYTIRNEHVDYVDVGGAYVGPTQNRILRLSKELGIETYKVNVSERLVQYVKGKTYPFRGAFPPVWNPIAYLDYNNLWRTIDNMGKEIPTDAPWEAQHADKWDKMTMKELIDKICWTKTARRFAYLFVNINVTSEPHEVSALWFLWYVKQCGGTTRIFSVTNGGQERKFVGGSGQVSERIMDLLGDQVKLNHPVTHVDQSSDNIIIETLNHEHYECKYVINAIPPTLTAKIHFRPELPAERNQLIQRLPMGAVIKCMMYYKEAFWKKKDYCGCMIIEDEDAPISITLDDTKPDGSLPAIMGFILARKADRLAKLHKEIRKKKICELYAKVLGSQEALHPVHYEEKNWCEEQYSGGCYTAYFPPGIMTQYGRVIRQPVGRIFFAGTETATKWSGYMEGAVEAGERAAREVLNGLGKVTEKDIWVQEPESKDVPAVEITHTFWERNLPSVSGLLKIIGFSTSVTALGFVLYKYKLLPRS

[2] = molecular target: Voltage-gated inwardly rectifying potassium channel KCNH2 (Homo sapiens, UniProt Q12809); format: functional
Acetylcholinesterase = Acetylcholinesterase (Homo sapiens, UniProt P22303); format: functional
[3] = molecular target: T2, 5-hydroxytryptamine receptor 1A (Homo sapiens, UniProt P08908)
T2 sequence (P08908 whole entry): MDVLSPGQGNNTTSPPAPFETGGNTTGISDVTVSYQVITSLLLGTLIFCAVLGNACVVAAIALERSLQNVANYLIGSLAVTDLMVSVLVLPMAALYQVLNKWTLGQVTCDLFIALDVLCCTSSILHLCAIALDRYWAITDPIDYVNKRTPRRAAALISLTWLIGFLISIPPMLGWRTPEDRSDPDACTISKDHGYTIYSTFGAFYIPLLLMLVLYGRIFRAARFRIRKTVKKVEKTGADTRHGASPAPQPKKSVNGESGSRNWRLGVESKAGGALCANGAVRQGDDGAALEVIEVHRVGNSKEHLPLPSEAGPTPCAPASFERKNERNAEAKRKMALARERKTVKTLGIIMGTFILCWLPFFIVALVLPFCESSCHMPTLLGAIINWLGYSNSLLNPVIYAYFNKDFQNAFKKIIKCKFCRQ

[4] = molecular target: Sodium-dependent noradrenaline transporter (Homo sapiens, UniProt P23975)
Sodium-dependent noradrenaline transporter, sequence (P23975 whole entry): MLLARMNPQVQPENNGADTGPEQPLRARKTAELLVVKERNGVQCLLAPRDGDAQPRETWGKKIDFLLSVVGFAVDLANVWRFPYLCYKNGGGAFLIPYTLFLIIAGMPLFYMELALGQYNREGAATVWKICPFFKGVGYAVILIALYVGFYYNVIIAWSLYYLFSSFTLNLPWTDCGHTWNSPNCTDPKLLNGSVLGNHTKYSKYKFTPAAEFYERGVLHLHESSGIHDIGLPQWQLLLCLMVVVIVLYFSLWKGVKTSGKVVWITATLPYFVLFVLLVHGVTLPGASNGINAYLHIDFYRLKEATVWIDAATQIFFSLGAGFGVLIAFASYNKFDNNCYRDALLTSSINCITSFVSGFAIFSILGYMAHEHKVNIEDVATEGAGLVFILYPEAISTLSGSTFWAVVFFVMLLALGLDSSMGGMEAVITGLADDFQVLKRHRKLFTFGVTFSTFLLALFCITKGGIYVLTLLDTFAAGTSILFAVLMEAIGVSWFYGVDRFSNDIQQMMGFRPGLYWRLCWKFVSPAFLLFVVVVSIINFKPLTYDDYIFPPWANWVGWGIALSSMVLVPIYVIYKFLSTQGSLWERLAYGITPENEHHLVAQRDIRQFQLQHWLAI

Mu-type opioid receptor = Mu-type opioid receptor (Homo sapiens, UniProt P35372)
Mu-type opioid receptor, sequence (P35372 whole entry): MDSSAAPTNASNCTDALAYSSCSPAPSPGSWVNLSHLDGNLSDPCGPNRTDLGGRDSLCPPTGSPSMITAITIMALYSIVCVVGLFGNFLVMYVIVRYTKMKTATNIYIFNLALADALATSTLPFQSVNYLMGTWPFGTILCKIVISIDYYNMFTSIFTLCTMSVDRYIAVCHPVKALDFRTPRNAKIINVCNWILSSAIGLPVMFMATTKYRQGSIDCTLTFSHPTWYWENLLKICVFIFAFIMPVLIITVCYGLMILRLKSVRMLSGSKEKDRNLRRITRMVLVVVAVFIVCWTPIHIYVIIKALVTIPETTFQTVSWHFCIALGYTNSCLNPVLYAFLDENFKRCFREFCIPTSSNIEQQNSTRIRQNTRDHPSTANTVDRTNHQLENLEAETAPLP

Thromboxane A2 receptor [5] = molecular target: T3, Thromboxane A2 receptor (Homo sapiens, UniProt P21731); format: functional, cell-based
T3 sequence (P21731 whole entry): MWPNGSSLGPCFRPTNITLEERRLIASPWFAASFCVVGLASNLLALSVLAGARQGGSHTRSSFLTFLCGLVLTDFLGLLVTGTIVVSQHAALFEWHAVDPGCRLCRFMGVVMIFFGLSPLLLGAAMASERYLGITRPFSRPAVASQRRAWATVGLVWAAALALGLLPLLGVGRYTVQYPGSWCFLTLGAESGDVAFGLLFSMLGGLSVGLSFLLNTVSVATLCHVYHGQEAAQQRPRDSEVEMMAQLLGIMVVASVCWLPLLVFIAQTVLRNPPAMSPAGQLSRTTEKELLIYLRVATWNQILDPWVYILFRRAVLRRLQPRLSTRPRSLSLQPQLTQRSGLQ

[6] = molecular target: 5-hydroxytryptamine receptor 2B (Homo sapiens, UniProt P41595); format: functional, cell-based
[7] = molecular target: T4, Muscarinic acetylcholine receptor M2 (Homo sapiens, UniProt P08172)
T4 sequence (P08172 whole entry): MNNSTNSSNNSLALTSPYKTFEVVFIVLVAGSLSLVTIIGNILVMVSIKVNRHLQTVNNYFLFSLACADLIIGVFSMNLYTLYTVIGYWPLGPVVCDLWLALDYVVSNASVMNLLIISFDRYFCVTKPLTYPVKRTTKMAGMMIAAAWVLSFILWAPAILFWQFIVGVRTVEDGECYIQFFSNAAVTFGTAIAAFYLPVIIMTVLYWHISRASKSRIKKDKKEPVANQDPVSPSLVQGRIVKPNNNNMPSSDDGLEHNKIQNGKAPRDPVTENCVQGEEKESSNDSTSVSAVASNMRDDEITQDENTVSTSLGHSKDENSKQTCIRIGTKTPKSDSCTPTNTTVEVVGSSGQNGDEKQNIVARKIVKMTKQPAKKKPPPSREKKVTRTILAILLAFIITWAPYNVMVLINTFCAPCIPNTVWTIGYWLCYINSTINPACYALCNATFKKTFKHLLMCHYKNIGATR

Thromboxane A2 receptor [8] = molecular target: T3, Thromboxane A2 receptor; format: functional, cell-based; remark: listed apart in the source
[9] = molecular target: Sodium-dependent dopamine transporter (Homo sapiens, UniProt Q01959)
Sodium-dependent dopamine transporter, sequence (Q01959 whole entry): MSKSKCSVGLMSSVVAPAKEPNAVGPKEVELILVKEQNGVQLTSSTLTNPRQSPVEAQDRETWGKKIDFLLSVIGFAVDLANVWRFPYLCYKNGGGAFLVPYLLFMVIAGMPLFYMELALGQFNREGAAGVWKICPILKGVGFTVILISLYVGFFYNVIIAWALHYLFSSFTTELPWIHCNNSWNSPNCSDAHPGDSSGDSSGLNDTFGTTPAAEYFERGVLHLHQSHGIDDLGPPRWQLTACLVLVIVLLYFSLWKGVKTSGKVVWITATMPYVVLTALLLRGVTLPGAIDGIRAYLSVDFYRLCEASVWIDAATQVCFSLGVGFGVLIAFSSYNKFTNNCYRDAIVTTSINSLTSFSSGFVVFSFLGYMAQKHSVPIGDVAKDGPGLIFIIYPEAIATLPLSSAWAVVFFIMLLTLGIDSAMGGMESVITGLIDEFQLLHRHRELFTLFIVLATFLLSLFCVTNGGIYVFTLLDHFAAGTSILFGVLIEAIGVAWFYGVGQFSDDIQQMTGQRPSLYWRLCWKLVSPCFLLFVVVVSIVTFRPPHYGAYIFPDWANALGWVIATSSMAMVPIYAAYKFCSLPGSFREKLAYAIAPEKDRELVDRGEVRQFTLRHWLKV

[10] = molecular target: T5, Prostaglandin G/H synthase 1 (Homo sapiens, UniProt P23219); format: functional
T5 sequence (P23219 whole entry): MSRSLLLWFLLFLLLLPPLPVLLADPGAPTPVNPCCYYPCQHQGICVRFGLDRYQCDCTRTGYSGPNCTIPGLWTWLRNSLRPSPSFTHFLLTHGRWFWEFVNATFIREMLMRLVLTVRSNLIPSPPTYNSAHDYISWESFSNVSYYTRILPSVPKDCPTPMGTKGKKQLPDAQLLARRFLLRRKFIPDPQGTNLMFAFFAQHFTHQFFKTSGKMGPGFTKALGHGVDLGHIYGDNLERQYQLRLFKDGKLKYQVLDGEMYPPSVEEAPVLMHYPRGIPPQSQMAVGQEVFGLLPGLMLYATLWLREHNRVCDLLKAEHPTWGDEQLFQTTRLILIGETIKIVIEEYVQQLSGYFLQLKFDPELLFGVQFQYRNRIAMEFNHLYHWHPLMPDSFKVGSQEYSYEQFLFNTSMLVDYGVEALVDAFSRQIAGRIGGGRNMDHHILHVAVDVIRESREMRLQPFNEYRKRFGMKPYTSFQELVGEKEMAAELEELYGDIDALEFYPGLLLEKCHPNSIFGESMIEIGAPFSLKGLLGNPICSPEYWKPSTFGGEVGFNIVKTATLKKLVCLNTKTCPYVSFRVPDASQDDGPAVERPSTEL

Prothrombin = Prothrombin (Homo sapiens, UniProt P00734); format: functional
[11] = molecular target: T5, Prostaglandin G/H synthase 1; format: functional; remark: listed apart in the source
[12] = molecular target: cGMP-inhibited 3',5'-cyclic phosphodiesterase 3A (Homo sapiens, UniProt Q14432); format: functional
cGMP-inhibited 3',5'-cyclic phosphodiesterase 3A, sequence (Q14432 whole entry): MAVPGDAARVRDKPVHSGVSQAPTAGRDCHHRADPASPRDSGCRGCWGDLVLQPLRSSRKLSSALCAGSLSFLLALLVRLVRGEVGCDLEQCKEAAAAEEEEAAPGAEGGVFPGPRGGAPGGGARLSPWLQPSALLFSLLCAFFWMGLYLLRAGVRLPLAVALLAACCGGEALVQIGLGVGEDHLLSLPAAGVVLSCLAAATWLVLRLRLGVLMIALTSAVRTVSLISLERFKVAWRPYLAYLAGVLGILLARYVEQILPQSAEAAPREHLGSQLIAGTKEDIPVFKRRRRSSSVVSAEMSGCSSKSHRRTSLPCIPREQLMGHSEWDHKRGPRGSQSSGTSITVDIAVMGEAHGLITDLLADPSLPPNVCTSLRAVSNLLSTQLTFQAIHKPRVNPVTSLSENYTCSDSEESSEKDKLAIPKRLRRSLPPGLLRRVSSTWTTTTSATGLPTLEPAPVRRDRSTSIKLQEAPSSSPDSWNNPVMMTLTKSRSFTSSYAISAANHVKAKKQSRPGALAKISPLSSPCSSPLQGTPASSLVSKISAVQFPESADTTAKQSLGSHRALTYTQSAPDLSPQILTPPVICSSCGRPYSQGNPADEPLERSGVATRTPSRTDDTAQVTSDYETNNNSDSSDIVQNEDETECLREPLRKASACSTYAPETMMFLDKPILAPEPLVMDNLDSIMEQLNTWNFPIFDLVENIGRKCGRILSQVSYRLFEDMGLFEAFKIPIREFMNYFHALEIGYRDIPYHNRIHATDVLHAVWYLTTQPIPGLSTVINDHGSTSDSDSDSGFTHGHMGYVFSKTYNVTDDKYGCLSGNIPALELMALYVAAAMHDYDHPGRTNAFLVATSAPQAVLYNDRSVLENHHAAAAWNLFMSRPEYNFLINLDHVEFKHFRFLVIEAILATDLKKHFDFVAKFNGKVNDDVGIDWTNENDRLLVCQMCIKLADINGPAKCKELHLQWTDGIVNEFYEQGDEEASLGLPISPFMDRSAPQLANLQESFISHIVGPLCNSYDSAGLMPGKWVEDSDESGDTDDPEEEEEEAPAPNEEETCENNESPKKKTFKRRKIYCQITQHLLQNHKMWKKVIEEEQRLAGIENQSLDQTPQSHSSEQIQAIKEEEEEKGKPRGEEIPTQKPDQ

D(1A) dopamine receptor = D(1A) dopamine receptor (Homo sapiens, UniProt P21728)
D(1A) dopamine receptor, sequence (P21728 whole entry): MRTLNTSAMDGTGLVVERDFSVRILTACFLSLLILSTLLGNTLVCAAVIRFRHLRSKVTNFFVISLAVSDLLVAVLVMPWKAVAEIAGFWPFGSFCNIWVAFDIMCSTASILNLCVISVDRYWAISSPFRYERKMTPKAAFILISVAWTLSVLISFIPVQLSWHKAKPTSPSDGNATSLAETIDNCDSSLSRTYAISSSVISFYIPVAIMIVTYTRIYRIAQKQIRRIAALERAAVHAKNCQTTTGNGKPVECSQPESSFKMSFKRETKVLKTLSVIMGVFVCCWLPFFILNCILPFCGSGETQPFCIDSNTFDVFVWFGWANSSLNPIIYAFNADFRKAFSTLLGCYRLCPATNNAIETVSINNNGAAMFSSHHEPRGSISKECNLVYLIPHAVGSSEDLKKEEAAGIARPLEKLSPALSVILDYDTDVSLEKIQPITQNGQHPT

Histamine H3 receptor = Histamine H3 receptor (Homo sapiens, UniProt Q9Y5N1)
Histamine H3 receptor, sequence (Q9Y5N1 whole entry): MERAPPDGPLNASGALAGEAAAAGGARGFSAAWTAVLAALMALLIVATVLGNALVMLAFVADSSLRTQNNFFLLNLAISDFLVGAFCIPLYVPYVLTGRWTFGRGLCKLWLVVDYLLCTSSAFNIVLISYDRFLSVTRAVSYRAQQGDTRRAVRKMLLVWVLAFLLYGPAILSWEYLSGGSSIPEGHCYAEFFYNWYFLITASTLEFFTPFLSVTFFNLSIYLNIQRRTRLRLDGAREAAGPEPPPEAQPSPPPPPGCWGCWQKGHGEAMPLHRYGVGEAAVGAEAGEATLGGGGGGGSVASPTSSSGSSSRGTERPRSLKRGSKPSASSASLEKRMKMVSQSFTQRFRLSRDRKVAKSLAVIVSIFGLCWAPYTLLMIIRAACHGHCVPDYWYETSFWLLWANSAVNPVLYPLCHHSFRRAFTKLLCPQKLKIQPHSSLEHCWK

D(3) dopamine receptor = D(3) dopamine receptor (Homo sapiens, UniProt P35462)
D(3) dopamine receptor, sequence (P35462 whole entry): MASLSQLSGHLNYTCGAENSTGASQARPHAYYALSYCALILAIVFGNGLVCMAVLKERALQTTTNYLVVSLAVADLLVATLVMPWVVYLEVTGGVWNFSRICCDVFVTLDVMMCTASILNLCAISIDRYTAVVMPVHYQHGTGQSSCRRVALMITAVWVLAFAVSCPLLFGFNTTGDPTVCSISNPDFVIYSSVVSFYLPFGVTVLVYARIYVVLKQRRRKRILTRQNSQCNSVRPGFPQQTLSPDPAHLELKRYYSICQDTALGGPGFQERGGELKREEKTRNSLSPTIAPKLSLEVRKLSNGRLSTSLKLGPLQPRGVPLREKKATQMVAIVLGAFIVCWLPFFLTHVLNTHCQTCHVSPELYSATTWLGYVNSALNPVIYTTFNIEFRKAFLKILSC
Further: assay procedure not described here.

| SMILES | AC50 [1] | AC50 [2] | AC50 (Acetylcholinesterase) | AC50 [3] | AC50 [4] | AC50 (Mu-type opioid receptor) | AC50 (Thromboxane A2 receptor [5]) | AC50 [6] | AC50 [7] | AC50 (Thromboxane A2 receptor [8]) | AC50 [9] | AC50 [10] | AC50 (Prothrombin) | AC50 [11] | AC50 [12] | AC50 (D(1A) dopamine receptor) | AC50 (Histamine H3 receptor) | AC50 (D(3) dopamine receptor) |
| --- | --- | --- | --- | --- | --- | --- | --- | --- | --- | --- | --- | --- | --- | --- | --- | --- | --- | --- |
| CC[C@H](c1ccc(O)cc1)[C@@H](CC)c1ccc(O)cc1 [HEXESTROL] | > 30 µM | > 30 µM | > 30 µM | > 30 µM | 8.77 µM | 15 µM | > 3 µM | > 30 µM | 18.7 µM | 21 µM | 3.31 µM | 16.4 µM | > 30 µM | > 30 µM | > 30 µM | 15.5 µM | > 30 µM | 17.5 µM |
| N#Cc1ccc2c(c1)N(CCCN1CCC(O)CC1)c1ccccc1S2 [PERICIAZINE] | > 30 µM | 5.82 µM | 29.1 µM | 8.8 µM | 5.08 µM | 4.59 µM | 17 µM | > 30 µM | 5.87 µM | > 30 µM |  | > 30 µM | > 30 µM | 21.5 µM | > 30 µM |  | > 30 µM |  |
| CC1=C(/C=C/C(C)=C/C=C/C(C)=C/C(=O)O)C(C)(C)CCC1 [TRETINOIN] | > 30 µM |  | > 30 µM | > 30 µM | 10.5 µM | > 30 µM | 14.3 µM | > 30 µM | > 30 µM | > 30 µM | > 30 µM |  | > 30 µM |  | > 30 µM | > 30 µM | > 30 µM | 22.6 µM |
| N[C@@H](CS)C(=O)O [CYSTEINE] | > 30 µM |  | > 30 µM | > 30 µM | > 30 µM | > 30 µM | > 30 µM | > 30 µM | > 30 µM | > 30 µM | > 30 µM | > 30 µM | > 30 µM | 4.66 µM | > 30 µM | > 30 µM | > 30 µM | > 30 µM |
| CC[C@@]1(O)C(=O)OCc2c1cc1n(c2=O)Cc2cc3c([N+](=O)[O-])cccc3nc2-1 [RUBITECAN] | > 30 µM |  | 3.65 µM | > 30 µM | > 30 µM | > 30 µM | > 10 µM | > 30 µM | > 30 µM | > 30 µM | > 30 µM | > 30 µM | > 30 µM | 26.8 µM | > 30 µM | > 30 µM | > 30 µM | > 30 µM |
| CCOC(=O)c1c(C)cc2c(CO)n[nH]c(=O)c2c1C [OXAGRELATE] | > 30 µM |  | > 30 µM | > 30 µM | > 30 µM | > 30 µM | > 30 µM | > 30 µM | > 30 µM | > 30 µM | > 30 µM | > 30 µM | > 30 µM | > 30 µM | 6.48 µM | > 30 µM | > 30 µM | > 30 µM |
| CN1CCCCC1CCN1c2ccccc2Sc2ccc([S+](C)[O-])cc21 (stereo not given) [MESORIDAZINE] | > 30 µM |  | > 30 µM | 0.214 µM | 28.8 µM | 2.99 µM | > 30 µM | > 30 µM | 0.153 µM | > 30 µM | 19.8 µM | > 30 µM | > 30 µM | > 30 µM | > 30 µM | 0.0712 µM | 21.9 µM | 0.0197 µM |
| CC[C@H](C)C[C@H](C)CCCCCCCCC(=O)N[C@H]1C[C@@H](O)[C@@H](NCCN)NC(=O)[C@@H]2[C@@H](O)CCN2C(=O)[C@H]([C@H](O)CCN)NC(=O)[C@H]([C@H](O)[C@@H](O)c2ccc(O)cc2)NC(=O)[C@@H]2C[C@@H](O)CN2C(=O)[C@H]([C@@H](C)O)NC1=O [CASPOFUNGIN] | > 30 µM |  | > 30 µM | > 30 µM | 5.03 µM | 5.12 µM | > 30 µM | > 30 µM | 10.8 µM | > 30 µM | 4.13 µM | 3.63 µM | > 30 µM |  | > 30 µM | 8.83 µM | > 30 µM | > 30 µM |
| CCc1nc(C(N)=O)c(Nc2ccc(N3CCC(N4CCN(C)CC4)CC3)c(OC)c2)nc1NC1CCOCC1 [GILTERITINIB] | > 30 µM |  | > 30 µM | > 30 µM | > 30 µM | > 30 µM | > 0.3 µM | > 30 µM | 16.4 µM | > 30 µM | > 30 µM | > 30 µM | > 30 µM | > 30 µM | > 30 µM | > 30 µM | 13.7 µM | 26.7 µM |
| OC[C@H]1O[C@@H](c2ccc(F)c(Cc3cc4ccccc4s3)c2)[C@H](O)[C@@H](O)[C@@H]1O [IPRAGLIFLOZIN] | > 30 µM |  | > 30 µM | > 30 µM | > 30 µM | > 30 µM | > 30 µM | > 30 µM | > 30 µM | > 30 µM | 7.69 µM | > 30 µM | > 30 µM | > 30 µM | > 30 µM | > 30 µM | > 30 µM | > 30 µM |
| CC(=O)Oc1cc(C(F)(F)F)ccc1C(=O)O [TRIFLUSAL] | > 30 µM |  | > 30 µM | > 30 µM | > 30 µM | > 30 µM | > 30 µM | > 30 µM | > 30 µM | > 30 µM | > 30 µM | > 30 µM | > 30 µM | > 30 µM | > 30 µM | > 30 µM | > 30 µM | > 30 µM |
| O=C(O)CO [GLYCOLIC ACID] | > 30 µM |  | > 30 µM | > 30 µM | > 30 µM | > 30 µM | > 30 µM | > 30 µM | > 30 µM | > 30 µM | > 30 µM | > 30 µM | > 30 µM | > 30 µM | > 30 µM | > 30 µM | > 30 µM | > 30 µM |
